Results on 14 compounds are retold here after patent US6855730B2, “3-methylidenyl-2-indolinone modulators of protein kinase” (Sugen, Inc., priority 1998, dated 2005).

Experiment [1] deals with T1, chimeric receptor containing the EGFR extracellular domain and intracellular HER2 kinase domain (Homo sapiens, UniProt P04626).
T1 construct: fused on or other part: EGFR ectodomain + HER2 intracellular part, ATP-site indolinones: HER2's kinase
Kind of experiment: EGF Receptor-HER2 chimeric receptor assay in whole cells (ELISA). The conditions noted are these: read-out: HER-2 kinase IC50. Type of experiment: cell-based. How it is done:
EGF Receptor-HER2 Chimeric Receptor Assay In Whole Cells.
HER2 kinase activity in whole EGFR-NIH3T3 cells are measured as described below:
• a. […] 05-101 (UBI) (a monoclonal antibody recognizing an EGFR extracellular domain). • c. Anti-phosphotyrosine antibody (anti-Ptyr) (polyclonal) (see, Fendley, et al., supra). • d. Detection antibody: Goat anti-rabbit IgG horseradish peroxidase conjugate, TAGO, Inc., Burlingame, Calif. • e. TBST buffer:
• h. Stock reagents of:
Pre-coat ELISA Plate • 1. […] Coated plates are good for up to 10 days when stored at 4° C. • 2. On day of use, remove coating buffer and replace with 100 μl blocking buffer (5% Carnation Instant Non-Fat Dry Milk in PBS). Incubate the plate, shaking, at room temperature (about 23° C. to 25° C.) for 30 minutes. Just prior to use, remove blocking buffer and wash plate 4 times with TBST buffer.
Seeding Cells • 1. An NIH3T3 cell line overexpressing a chimeric receptor containing the EGFR extracellular domain and intracellular HER2 kinase domain can be used for this assay. • 2. Choose dishes having 80-90% confluence for the experiment. Trypsinize cells and stop reaction by adding 10% fetal bovine serum. Suspend cells in DMEM medium (10% CS DMEM medium) and centrifuge once at 1500 rpm, at room temperature for 5 minutes. • 3. Resuspend cells in seeding medium (DMEM, 0.5% bovine serum), and count the cells using trypan blue. Viability above 90% is acceptable. Seed cells in DMEM medium (0.5% bovine serum) at a density of 10,000 cells per well, 100 μl per well, in a 96 well microtiter plate. Incubate seeded cells in 5% CO2. at 37° C. for about 40 hours.
Assay Procedures • 1. Check seeded cells for contamination using an inverted microscope. Dilute drug stock (10 mg/ml in DMSO) 1:10 in DMEM medium, then transfer 5 μl to a […] well for a final drug dilution of 1:200 and a final DMSO concentration of 1%. Control wells receive DMSO alone. Incubate in 5% CO2 at 37° C. for two hours. • 2. Prepare EGF ligand: dilute stock EGF in DMEM so that upon transfer of 10 μl dilute EGF (1:12 dilution), 100 nM final concentration is attained. • 3. Prepare fresh HNTG* sufficient for 100 μl per well, and place on ice.
• 4. After 120 minutes incubation with drug, add prepared […] ligand to cells, 10 μl per well, to a final concentration of 100 nM. Control wells receive DMEM alone. Incubate with shaking, at room temperature, for 5 minutes. • 5. Remove drug, EGF, and DMEM. Wash cells twice with PBS. Transfer HNTG* to cells, 100 μl per well. Place on ice for 5 minutes. Meanwhile, remove blocking buffer from other ELISA plate and wash with TBST as described above. • 6. With a pipette tip securely fitted to a micropipettor, scrape cells from plate and homogenize cell material by repeatedly aspirating and dispensing the HNTG* lysis buffer. Transfer lysate to a coated, blocked, and washed ELISA plate. Incubate shaking at room temperature for one hour. • 7. Remove lysate and wash 4 times with TBST. Transfer freshly diluted anti-Ptyr antibody to ELISA plate at 100 μl per well. Incubate shaking at room temperature for 30 minutes in the presence of the anti-Ptyr antiserum (1:3000 dilution in TBST). • 8. Remove the anti-Ptyr antibody and wash 4 times with TBST. Transfer the freshly diluted TAGO anti-rabbit IgG antibody to the ELISA plate at 100 μl per well. Incubate shaking at room temperature for 30 minutes (anti-rabbit IgG antibody: 1:3000 dilution in TBST). • 9. Remove TAGO detection antibody and wash 4 times with TBST. Transfer freshly prepared ABTS/H2O2 solution to ELISA plate, 100 μl per well. Incubate shaking at room temperature for 20 minutes. (ABTS/H2O2 solution: 1.0 μl 30% H2O2 in 10 ml ABTS stock). • 10. Stop reaction by adding 50 μl 5N H2SO4 (optional), and determine O.D. at 410 nm. • 11. The maximal phosphotyrosine signal is determined by subtracting the value of the negative controls from the positive controls. […]
(ELISA stands for enzyme-linked immunosorbent assay.)

The target in experiment [2] is Myc-GyrB-FGFR fusion protein (Homo sapiens, UniProt P11362). The experiment is described as follows: Biochemical FGFR assay (ELISA). The conditions noted are these: read-out: bio fgfR1 IC50.
Procedure: This assay measures in vitro kinase activity of the Myc-GyrB-FGFR fusion protein using ELISA.
Materials and Reagents • 1. HNTG
PBS (Dulbecco's Phosphate-Buffered Saline, Gibco Catalog # 450-1300EB). • 3. Blocking Buffer. • 4. Kinase Buffer.
Working solution: 100 mM in ethanol. • 6.
ABTS Solution. • 10. Hydrogen peroxide 30% solution ( Fisher Catalog # H325). • 11. ABTS/H2O2. • 12. 0.2 M HCl. • 13.
Prepare 1.0 mM solution in MilliQ H2O, adjust pH to 7.2 with HCl. • 14.
Prepare 5 M solution in MilliQ H2O. • 15. MgCl, (Fisher Cat. No. M33-500).
Prepare 1 M solution in MilliQ H2O. • 16. HEPES (Fisher Cat. No. BP310-500).
Prepare 1 M solution in MilliQ H2O, adjust pH to 7.5, sterile filter. • 17. TBST Buffer. • 18. Sodium Carbonate Buffer (Fisher Cat. No. S495).
Prepare 0.1 M solution in MilliQ H2O, adjust pH to 9.6 with NaOH, filter. • 19. Dithiothreitol (DTT, Fisher Cat. No. BP172-25).
Prepare 0.5 mM working solution in MilliQ H2O just prior to-use. Store at −20° C. until used, discard any leftover. • 20. MnCl2. • 21. Triton X-100. • 22. Goat α-Rabbit IgG (Cappel). • 23. Affinity purified Rabbit α GST GyrB (Biochemistry Lab. SUGEN, Inc.).
All of the following steps are conducted at room temperature unless otherwise indicated. • 1. Coat Corning 96-well ELISA plates with 2 μg Goat α-Rabbit antibody per well in Carbonate Buffer such that total well volume is 100 μl. Store overnight at 40° C. • 2. Remove unbound Goat a-Rabbit antibody by inverting plate to remove liquid. Pat plate on a paper towel to remove excess liquid and bubbles • 3.. Add 150 μl Blocking Buffer (5% Low Fat Milk in PBS) to each well. Incubate while shaking on a micro-titer plate shaker for 30 min. • 4. Wash 4× with TBST. Pat plate on a paper towel to remove excess liquid and bubbles. • 5. Add 0.5 μg Rabbit α-GyrB antibody per well. Dilute antibody in DPBS to a final volume of 100 μl per well. Incubate with shaking on a micro-titer plate shaker at room temperature for 1 hour. • 6. Wash 4× with TBST as described in step 4. • 7. Add 2 μg COS/FGFR cell lysate (Myc-GyrB-FGFR source) in HNTG to each well to give a final volume of 100 μl per well. Incubate with shaking on a micro-titer plate shaker for 1 hour. • 8. Wash 4× with TBST as described in step 4. • 9. Add 80 μl of 1× kinase buffer per well. • 10. […] Transfer 10 μ l of diluted test compound solution and control wells from polypropylene plate wells to the corresponding ELISA plate wells, incubate with shaking on a micro-titer plate shaker for 20 minutes. • 12. Add 10 μl of 70 μM ATP diluted in kinase buffer to positive control and test wells (Final ATP concentration is 7 EM/well). Add 10 μl 1× kinase buffer to negative control wells. Incubate with shaking on a micro-titer plate shaker for 15 min. • 13. Stop kinase reaction by adding 5 μl 0.5 M EDTA to all wells. • 14. Wash 4× with TBST as described in step 4. • 15. Add 100 μl biotin conjugated α-phosphotyrosine mab (b4G10) diluted in TBST to each well. Incubate with shaking on a micro-titer plate shaker for 30 minutes. • 16. Prepare Vectastain ABC reagent. […] Mix by inverting tube several times. Add 1 drop reagent B and mix again. • 17. Wash 4× with TBST as described in step 4. • 18. Add 100 μl ABC HRP reagent to each well. Incubate with shaking on a micro-titer plate shaker for 30 minutes. • 19. Wash 4× with TBST as described in step 4. • 20. Add 100 μl of ABTS/H2O2 solution to each well. • 22. Incubate 5 to 15 minutes with shaking. Remove any bubbles. • 23. If necessary stop reaction by adding 1 00 μl of 0.2M HCl/well. • 24.
Experiment [3] addresses T2, PDGFR-β (Homo sapiens, UniProt P09619).
T2 construct: host or cells: NIH 3T3
The experiment is described as follows: Biochemical PDGFR assay (ELISA, PDGFR-β expressing NIH 3T3 cell lysate). The conditions noted are these: read-out: bio PDGF IC50. The source says: This assay measures the in vitro kinase activity of PDGFR using ELISA.
Unless otherwise noted, the preparation of working solution-of the following reagents is the same as that for the Biochemical EGFR assay, above. • 1. […] 28D4C10 monoclonal anti-PDGFR antibody (Biochemistry Lab, SUGEN, Inc.). • 3. PBS (Dulbecco's Phosphate-Buffered Saline, Gibco Catalog No. 450-1300EB) • 4. TBST Buffer. • 5. Blocking Buffer. • 6. PDGFR-β expressing NIH 3T3 cell lysate (Screening Lab, SUGEN, Inc.). • 7. TBS Buffer. • 8. TBS+10% DMSO. • 9. […] MnCl2. • 11. Kinase buffer phosphorylation mix.
• 12. NUNC 96-well V bottom polypropylene plates (Applied Scientific Cat. No. AS-72092). • 13. Ethylenediaminetetraacetic acid (EDTA). • 14. Rabbit polyclonal anti-phosphotyrosine serum (Biochemistry Lab, SUGEN, Inc.). • 15. Goat anti-rabbit IgG peroxidase conjugate (Biosource Cat. No. ALI0404). • 16. 2,2′-azino-bis(3-ethylbenzthiazoline-6-sulfonic acid) (ABTS, Sigma Cat. No. A-1888). • 17. Hydrogen peroxide 30% solution (Fisher Cat. No. H325). • 18. ABTS/H2O2. • 19. 0.2 M HCl.
Procedure • 1. Coat Corning 96 well ELISA plates with 0.5 μg 28D4C10 in 100 μl PBS per well, store overnight at 4° C. • 2. Remove unbound 28D4C10 from wells by inverting plate to remove liquid. Wash 1× with dH2O. Pat the plate on a paper towel to remove excess liquid. • 3. Add 150 μl of Blocking Buffer to each well. Incubate for 30 min. at room temperature with shaking. • 4. Wash plate 3× with deionized water, then once with TBST. Pat plate on a paper towel to remove excess liquid and bubbles. • 5. Dilute lysate in HNTG (10 μg lysate/100 μl HNTG) • 6. Add 100 μl of diluted lysate to each well. Shake at room temperature for 60 min. • 7. Wash plates as described in 4, above. • 8. Add 80 μl working kinase buffer mix to ELISA plate containing captured PDGFR. • 9. Dilute test compound 1:10 in TBS in 96-well polypropylene plates (i.e., 10 μl compound+90 μl TBS). • 10. Add 10 μl diluted test compound to ELISA plate. […] Incubate for 30 minutes while shaking at room temperature. • 12. Add 10 μl ATP directly to all wells except negative control well (final well volume should be approximately 100 μl with 20 μM ATP in each well.) Incubate 30 minutes while shaking. • 13. After 30 minutes, stop reaction by adding 10 μl of 200 mM EDTA (pH 8.0) to each well. • 14. Wash 4× with deionized water, twice with TBST. • 15. Add 100 μl anti-phosphotyrosine (1:3000 dilution in TBST) per well. Incubate 30-45 min. at room temperature, with shaking. • 16. Wash as described in 4, above. • 17. Add 100 μl Biosource Goat anti-rabbit IgG peroxidase conjugate (1:2000 dilution in TBST) to each well. Incubate 30 min. at room temperature, with shaking. • 18. Wash as described in 4, above. • 19. Add 100 μl of ABTS/H2O2 solution to each well. • 20. Incubate 10 to 30 minutes with shaking. Remove any bubbles. • 21. If necessary stop reaction with the addition of 100 μl 0.2 M HCl per well. • 22. Read assay on Dynatech MR7000 ELISA reader: test filter: 410 nM, reference filter: 630 nM.

Experiment [4] deals with T3, flkGST (Homo sapiens, UniProt P35968).
T3 construct: GST
The experiment is described as follows: bio flkGST assay. Format: biochemical.

Chain of Myc-GyrB-FGFR fusion protein (P11362 478-767 limits assumed): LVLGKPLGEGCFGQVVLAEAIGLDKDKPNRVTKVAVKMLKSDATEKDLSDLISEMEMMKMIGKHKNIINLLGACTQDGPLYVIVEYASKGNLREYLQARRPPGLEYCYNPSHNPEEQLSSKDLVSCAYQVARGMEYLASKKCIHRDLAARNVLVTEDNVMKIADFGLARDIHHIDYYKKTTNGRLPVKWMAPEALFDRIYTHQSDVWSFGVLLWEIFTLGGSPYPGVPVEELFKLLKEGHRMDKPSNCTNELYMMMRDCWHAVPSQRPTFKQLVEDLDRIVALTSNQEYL
T1 sequence (P04626 720-1255 limits assumed, change not shown): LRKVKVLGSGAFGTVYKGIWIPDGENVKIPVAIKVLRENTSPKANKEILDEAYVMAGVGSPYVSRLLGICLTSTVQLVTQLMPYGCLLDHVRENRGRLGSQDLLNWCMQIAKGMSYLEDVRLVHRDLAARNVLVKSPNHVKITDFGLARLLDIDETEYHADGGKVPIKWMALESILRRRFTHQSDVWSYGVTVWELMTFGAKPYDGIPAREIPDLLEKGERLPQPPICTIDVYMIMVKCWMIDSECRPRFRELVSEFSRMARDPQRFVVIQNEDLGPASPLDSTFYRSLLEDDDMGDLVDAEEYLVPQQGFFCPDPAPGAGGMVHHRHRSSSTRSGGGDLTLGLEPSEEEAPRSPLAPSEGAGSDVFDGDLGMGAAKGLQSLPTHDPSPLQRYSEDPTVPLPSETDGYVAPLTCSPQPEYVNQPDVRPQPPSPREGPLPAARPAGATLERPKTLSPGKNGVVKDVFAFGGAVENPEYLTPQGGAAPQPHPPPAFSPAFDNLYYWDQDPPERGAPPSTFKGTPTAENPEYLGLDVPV
T2 sequence (P09619 33-1106): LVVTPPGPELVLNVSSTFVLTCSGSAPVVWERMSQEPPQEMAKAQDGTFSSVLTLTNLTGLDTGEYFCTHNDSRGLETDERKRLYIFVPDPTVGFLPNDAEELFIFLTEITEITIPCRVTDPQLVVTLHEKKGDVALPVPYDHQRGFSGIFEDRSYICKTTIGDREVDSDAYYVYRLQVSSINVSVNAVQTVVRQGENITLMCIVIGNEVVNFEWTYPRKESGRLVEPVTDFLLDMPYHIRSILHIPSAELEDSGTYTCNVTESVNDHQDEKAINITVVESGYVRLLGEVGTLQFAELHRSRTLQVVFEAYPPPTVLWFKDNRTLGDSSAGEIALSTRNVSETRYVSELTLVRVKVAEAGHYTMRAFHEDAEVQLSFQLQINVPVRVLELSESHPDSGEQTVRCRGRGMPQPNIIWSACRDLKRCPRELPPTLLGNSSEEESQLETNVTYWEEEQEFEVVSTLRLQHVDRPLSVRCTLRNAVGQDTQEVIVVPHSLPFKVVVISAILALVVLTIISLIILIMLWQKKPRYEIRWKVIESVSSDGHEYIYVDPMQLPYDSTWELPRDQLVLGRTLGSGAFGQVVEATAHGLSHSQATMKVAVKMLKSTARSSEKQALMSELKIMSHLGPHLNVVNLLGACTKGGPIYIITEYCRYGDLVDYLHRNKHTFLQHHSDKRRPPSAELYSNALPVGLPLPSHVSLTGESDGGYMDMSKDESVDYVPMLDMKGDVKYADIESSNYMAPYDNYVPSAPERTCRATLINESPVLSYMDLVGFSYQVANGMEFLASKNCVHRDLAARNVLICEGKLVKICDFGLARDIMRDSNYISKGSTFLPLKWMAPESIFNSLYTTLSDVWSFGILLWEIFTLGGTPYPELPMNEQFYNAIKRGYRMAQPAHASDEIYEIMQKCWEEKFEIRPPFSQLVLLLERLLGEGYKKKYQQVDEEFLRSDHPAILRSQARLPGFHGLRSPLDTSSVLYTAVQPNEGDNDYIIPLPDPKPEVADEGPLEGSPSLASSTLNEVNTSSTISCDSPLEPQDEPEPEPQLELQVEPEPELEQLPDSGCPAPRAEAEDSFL
T3 sequence (P35968 786-1356 limits assumed): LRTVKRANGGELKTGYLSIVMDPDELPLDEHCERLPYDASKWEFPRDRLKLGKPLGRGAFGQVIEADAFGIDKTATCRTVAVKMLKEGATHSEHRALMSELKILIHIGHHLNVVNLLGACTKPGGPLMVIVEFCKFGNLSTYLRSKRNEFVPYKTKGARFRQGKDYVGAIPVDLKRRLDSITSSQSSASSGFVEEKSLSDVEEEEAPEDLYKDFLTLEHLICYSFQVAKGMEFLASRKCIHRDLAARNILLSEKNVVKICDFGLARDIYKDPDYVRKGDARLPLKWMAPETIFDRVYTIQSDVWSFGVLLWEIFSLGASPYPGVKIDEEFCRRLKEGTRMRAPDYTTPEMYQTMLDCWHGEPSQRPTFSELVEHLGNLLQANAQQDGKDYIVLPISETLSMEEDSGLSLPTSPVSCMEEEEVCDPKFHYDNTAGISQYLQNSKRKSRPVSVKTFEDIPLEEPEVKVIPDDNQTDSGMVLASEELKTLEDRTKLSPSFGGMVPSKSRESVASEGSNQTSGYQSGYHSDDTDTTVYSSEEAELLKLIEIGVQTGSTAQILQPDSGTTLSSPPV

By IC50 is commonly meant the midpoint of a concentration-inhibition curve. `Cc1ccc2c(c1)/C(=C/c1[nH]c3ccccc3c1C)C(=O)N2` [Example 152, 5-Methyl-3-(3-methyl-1H-indol-2-ylmethylene)-1,3-dihydro-indol-2-one]: the IC50 was greater than 100 µM in experiment [1] and greater than 20 µM in experiment [2].

Take `O=C1Nc2ccccc2/C1=C/c1cc2ccccc2[nH]1` [Example 163, 3-(1H-Indol-2-ylmethylene)-1,3-dihydro-indol-2-one]: the IC50 in experiment [3] was greater than 100 µM; in experiment [2] it was greater than 20 µM.

On to `O=C1Nc2ccc(Cl)cc2/C1=C/c1cc2ccccc2[nH]1` [Example 164, 5-Chloro-3-(1H-indol-2-ylmethylene)-1,3-dihydro-indol-2-one], for which the IC50 was greater than 100 µM in experiment [3], greater than 100 µM in experiment [1] and greater than 20 µM in experiment [2].

As for `Cc1c(/C=C2\C(=O)Nc3ccccc32)[nH]c2ccccc12` [Example 167, 3-(3-Methyl-1H-indol-2-ylmethylene)-1,3-dihydro-indol-2-one], the half-maximal inhibitory concentration (IC50) in experiment [3] was greater than 100 µM; in experiment [2] it was greater than 20 µM.

As to `O=C1Nc2cc(Cl)ccc2/C1=C/c1cc2ccccc2[nH]1` [Example 162, 6-Chloro-3-(1H-indol-2-ylmethylene)-1,3-dihydro-indol-2-one], the concentration for half-maximal inhibition (IC50) in experiment [3] is 8.02 µM; in experiment [2], greater than 20 µM.

In the case of `CCOC(=O)c1c(C)[nH]c(/C=C2\C(=O)Nc3ccc(S(N)(=O)=O)cc32)c1CCCN1CCCC1` [Example 130, 2-Methyl-5-(2-oxo-5-sulfamoyl-1,2-dihydroindol-3-ylidenemethyl)-4-(3-pyrrolidin-1-ylpropyl)-1H-pyrrole-3-carboxylic acid ethyl ester], the IC50 in experiment [3] is 2.32 µM; in experiment [4] it was 12.9 µM.

For `CCOC(=O)c1c(C)[nH]c(/C=C2\C(=O)Nc3ccc(OC)cc32)c1CCCN(C)C` [Example 120, 4-(3-Dimethylaminopropyl)-5-(5-methoxy-2-oxo-1,2-dihydroindol-3-ylidenemethyl)-2-methyl-1H-pyrrole-3-carboxylic acid ethyl ester], the figures for the IC50 in experiment [3] and in experiment [4] were 9.97 µM and 6.32 µM, respectively.

For `CCOC(=O)c1[nH]c(/C=C2\C(=O)Nc3ccccc32)c(CCC(=O)O)c1C` [Example 117, 4-(2-Carboxyethyl)-3-methyl-5-(2-oxo-1,2-dihydroindol-3-ylidenemethyl)-1H-pyrrole-2-carboxylic acid ethyl ester], the half-inhibitory concentration (IC50) in experiment [3] is greater than 100 µM; in experiment [4], 13.5 µM; in experiment [2] it was greater than 20 µM.

In the case of `CC(=O)c1ccc2c(c1)C(=Cc1[nH]c3ccccc3c1C)C(=O)N2` [Example 157, 5-Acetyl-3-(3-methyl-1H-indol-2-ylmethylene)-1,3-dihydroindol-2-one], the IC50 in experiment [3] was greater than 100 µM; in experiment [1] it was greater than 100 µM; in experiment [2], greater than 20 µM.

In the case of `CCOC(=O)c1c(C)[nH]c(/C=C2\C(=O)Nc3ccc(OC)cc32)c1CCCN1CCOCC1` [Example 121, 5-(5-Methoxy-2-oxo-1,2-dihydroindol-3-ylidenemethyl)-2-methyl-4-(3-morpholin-4-ylpropyl)-1H-pyrrole-3-carboxylic acid ethyl ester], the IC50 in experiment [3] is 26.7 µM; in experiment [4] it was 1 µM.

As for `Cc1c(/C=C2\C(=O)Nc3ccc(S(N)(=O)=O)cc32)[nH]c2ccccc12` [Example 153, 3-(3-Methyl-1H-indol-2-ylmethylene)-2-oxo-2,3-dihydro-1H-indole-5-sulfonic acid amide], the results for the IC50 in experiment [3], in experiment [1] and in experiment [2] were greater than 100 µM, greater than 100 µM and greater than 20 µM, respectively.

As for `Cc1c(/C=C2\C(=O)Nc3ccc(Cl)cc32)[nH]c2ccccc12` [Example 168, 5-Chloro-3-(3-methyl-1H-indol-2-ylmethylene)-1,3-dihydro-indol-2-one], the IC50 in experiment [3] was greater than 100 µM; in experiment [2], greater than 20 µM.

With `CCOC(=O)c1c(C)[nH]c(/C=C2\C(=O)Nc3ccc(OC)cc32)c1CCCN1CCN(C)CC1` [Example 122, 5-(5-Methoxy-2-oxo-1,2-dihydroindol-3-ylidenemethyl)-2-methyl-4-[3-(4-methylpiperazin-1-yl)-propyl]-1h-pyrrole-3-carboxylic acid ethyl ester], the IC50 in experiment [3] is 2.13 µM; in experiment [4], 0.51 µM.

Turning to `NS(=O)(=O)c1ccc2c(c1)/C(=C/c1cc3ccccc3[nH]1)C(=O)N2` [Example 159, 3-(1H-Indol-2-ylmethylene)-2-oxo-2,3-dihydro-1H-indole-5-sulfonic acid amide], the IC50 in experiment [3] is 74.1 µM; in experiment [4] it was 2.87 µM; in experiment [2], greater than 20 µM.
